For five compounds, Activity and inhibition results are on record in ChEMBL document CHEMBL1140899, “Computational studies of epidermal growth factor receptor: docking reliability, three-dimensional quantitative structure-activity relationship analysis, and virtual screening studies” (J Med Chem, 2009).

As a reminder, the inhibition is the percentage by which the read-out fell short of the control.

Assay [1] has as its target T1, Epidermal growth factor receptor (Homo sapiens, UniProt P00533). The assay is described as follows: Inhibition of human recombinant EGFR up to 100 uM.
The target in assay [2] is T1, Epidermal growth factor receptor. Put plainly: Inhibition of human recombinant EGFR at 100 uM.

Structures are written as SMILES. Active and inactive are the calls of the source. The calls are words filed in the database; no cut-off is given here.

T1 sequence (P00533 whole entry): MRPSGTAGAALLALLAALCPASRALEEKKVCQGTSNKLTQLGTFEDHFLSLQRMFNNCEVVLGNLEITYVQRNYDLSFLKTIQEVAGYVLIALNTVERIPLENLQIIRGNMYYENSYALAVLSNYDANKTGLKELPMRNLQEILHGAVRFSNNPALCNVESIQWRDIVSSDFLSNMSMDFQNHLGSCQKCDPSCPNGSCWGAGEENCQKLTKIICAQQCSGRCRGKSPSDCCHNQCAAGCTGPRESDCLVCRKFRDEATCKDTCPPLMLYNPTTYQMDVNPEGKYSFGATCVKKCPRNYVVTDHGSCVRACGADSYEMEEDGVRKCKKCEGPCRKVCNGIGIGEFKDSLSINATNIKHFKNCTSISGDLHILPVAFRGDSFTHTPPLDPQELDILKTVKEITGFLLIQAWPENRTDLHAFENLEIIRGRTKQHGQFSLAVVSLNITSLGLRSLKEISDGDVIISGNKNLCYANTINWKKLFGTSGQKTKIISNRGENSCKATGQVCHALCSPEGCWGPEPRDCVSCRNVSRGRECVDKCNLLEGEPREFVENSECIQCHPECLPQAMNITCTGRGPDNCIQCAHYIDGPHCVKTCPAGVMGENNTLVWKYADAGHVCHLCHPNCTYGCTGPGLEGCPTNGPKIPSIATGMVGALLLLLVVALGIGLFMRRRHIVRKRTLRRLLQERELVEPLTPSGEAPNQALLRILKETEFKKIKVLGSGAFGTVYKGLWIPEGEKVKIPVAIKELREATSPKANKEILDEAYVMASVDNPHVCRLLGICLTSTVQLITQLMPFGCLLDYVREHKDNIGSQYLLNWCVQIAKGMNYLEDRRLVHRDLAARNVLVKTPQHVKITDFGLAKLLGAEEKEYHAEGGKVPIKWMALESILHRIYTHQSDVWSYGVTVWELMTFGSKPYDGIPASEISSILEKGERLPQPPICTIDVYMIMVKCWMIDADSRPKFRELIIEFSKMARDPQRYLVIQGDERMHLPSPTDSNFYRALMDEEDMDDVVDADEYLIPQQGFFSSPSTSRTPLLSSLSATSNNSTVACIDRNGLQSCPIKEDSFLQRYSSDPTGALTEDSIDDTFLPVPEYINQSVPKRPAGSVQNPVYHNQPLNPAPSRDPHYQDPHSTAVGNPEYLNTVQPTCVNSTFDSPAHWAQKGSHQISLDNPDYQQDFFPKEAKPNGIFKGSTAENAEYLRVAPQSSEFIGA

In the case of `FC(F)(F)Oc1ccc(Nc2ccnc3cc(Cl)ccc23)cc1`, the outcome in assay [1] was inactive.
In the case of `COc1ccc([N+](=O)[O-])c2ncnc(O)c12`, the inhibition in assay [2] was determined as 0%.
Take `Nc1ccc(Nc2ccc([N+](=O)[O-])c3ncnc(O)c23)cc1`: in assay [2], the inhibition came to 0%.
`Cc1cccc(Nc2ccc([N+](=O)[O-])c3ncnc(O)c23)c1`: the inhibition in assay [2] came to 0%.
Turning to `O=[N+]([O-])c1ccc(N2CCCC2)c2c(O)ncnc12`, the inhibition in assay [2] was 0%.
